Laboratory results: US9546401B2, “Assays and methods for selecting a treatment regimen for a subject with depression” (The General Hospital Corporation, priority 2011, dated 2017)
Where two headings read alike, the source gives them in different places.

Tested on: SSRI-resistant outpatients with major depressive disorder (MDD)
Conditions: for Cardiovascular side effects, NNH / Gastrointestinal side effects, NNH / Infectious side effects, NNH / Miscellaneous side effects, NNH / Psychological side effects, NNH / Sexual side effects, NNH / Sleep side effects, NNH / Somatic side effects, NNH: versus placebo
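Further: adverse events recorded at every visit with the SAFTEE-SI in a 60-day double-blind sequential parallel trial of two 30-day phases, visits every 10 days, placebo as comparator.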

Description: The study involved the enrollment of a total of 148 patients with MDD over the course of 12 months across 10 medical centers or hospitals in the United States. […] In accordance with the sequential parallel design [51], the 60-day, double-blind treatment was divided into two phases of 30 days each, with assessments performed every 10 days.

**Q.** With `CN1c2c(nc(N)[nH]c2=O)NC[C@@H]1CNc1ccc(C(=O)N[C@@H](CCC(=O)O)C(=O)O)cc1` [6(S)-5-MTHF, 6(S)-5-methyltetrahydrofolate] as the compound, how does the “adverse side effect when administered with an SSRI” value (Trial 1) read?
**A.** The value was “does not appear to cause any adverse side effect”.

**Q.** What about the “Cardiovascular side effects, Frequency” value (Trial 1, 7.5 mg + SSRI, n = 94) of the same compound?
**A.** The value was 0.

**Q.** What about the “Cardiovascular side effects, Frequency (%)” value (Trial 1, 7.5 mg + SSRI, n = 94) of the same compound?
**A.** Its value is “(0%)”.

**Q.** What about the “Gastrointestinal side effects, Frequency” value (Trial 1, 7.5 mg + SSRI, n = 94) of the same compound?
**A.** The value was 9.

**Q.** And the “Gastrointestinal side effects, Frequency (%)” value (Trial 1, 7.5 mg + SSRI, n = 94)?
**A.** Its value is “(9.6%)”.

**Q.** And the “Infectious side effects, Frequency” value (Trial 1, 7.5 mg + SSRI, n = 94)?
**A.** Its value is 6.

**Q.** What about the “Infectious side effects, Frequency (%)” value (Trial 1, 7.5 mg + SSRI, n = 94) of the same compound?
**A.** The value was “(6.4%)”.

**Q.** And the “Miscellaneous side effects, Frequency” value (Trial 1, 7.5 mg + SSRI, n = 94)?
**A.** Its value is 1.

**Q.** And the “Miscellaneous side effects, Frequency (%)” value (Trial 1, 7.5 mg + SSRI, n = 94)?
**A.** The value was “(1.1%)”.

**Q.** What about the “Psychological side effects, Frequency” value (Trial 1, 7.5 mg + SSRI, n = 94) of the same compound?
**A.** The value was 2.

**Q.** What about the “Psychological side effects, Frequency (%)” value (Trial 1, 7.5 mg + SSRI, n = 94) of the same compound?
**A.** Its value is “(2.1%)”.

**Q.** And the “Sexual side effects, Frequency” value (Trial 1, 7.5 mg + SSRI, n = 94)?
**A.** The value was 0.

**Q.** What about the “Sexual side effects, Frequency (%)” value (Trial 1, 7.5 mg + SSRI, n = 94) of the same compound?
**A.** Its value is “(0%)”.

**Q.** And the “Sleep side effects, Frequency” value (Trial 1, 7.5 mg + SSRI, n = 94)?
**A.** The value was 3.

**Q.** What about the “Sleep side effects, Frequency (%)” value (Trial 1, 7.5 mg + SSRI, n = 94) of the same compound?
**A.** Its value is “(3.2%)”.

**Q.** And the “Somatic side effects, Frequency” value (Trial 1, 7.5 mg + SSRI, n = 94)?
**A.** Its value is 9.

**Q.** And the “Somatic side effects, Frequency (%)” value (Trial 1, 7.5 mg + SSRI, n = 94)?
**A.** The value was “(9.6%)”.

**Q.** What about the “Cardiovascular side effects, NNH” value (Trial 1, 7.5 mg + SSRI) of the same compound?
**A.** Its value is “<placebo”.

**Q.** And the “Gastrointestinal side effects, NNH” value (Trial 1, 7.5 mg + SSRI)?
**A.** Its value is “<placebo”.

**Q.** And the “Infectious side effects, NNH” value (Trial 1, 7.5 mg + SSRI)?
**A.** Its value is “<placebo”.

**Q.** What about the “Miscellaneous side effects, NNH” value (Trial 1, 7.5 mg + SSRI) of the same compound?
**A.** Its value is “<placebo”.

**Q.** What about the “Psychological side effects, NNH” value (Trial 1, 7.5 mg + SSRI) of the same compound?
**A.** Its value is “<placebo”.

**Q.** And the “Sexual side effects, NNH” value (Trial 1, 7.5 mg + SSRI)?
**A.** Its value is “=placebo”.

**Q.** What about the “Sleep side effects, NNH” value (Trial 1, 7.5 mg + SSRI) of the same compound?
**A.** Its value is “<placebo”.

**Q.** And the “Somatic side effects, NNH” value (Trial 1, 7.5 mg + SSRI)?
**A.** Its value is “<placebo”.

**Q.** What about the “Cardiovascular side effects, Frequency” value (Trial 1, 15 mg + SSRI, n = 30) of the same compound?
**A.** Its value is 2.

**Q.** What about the “Cardiovascular side effects, Frequency (%)” value (Trial 1, 15 mg + SSRI, n = 30) of the same compound?
**A.** Its value is “(6.7%)”.

**Q.** And the “Gastrointestinal side effects, Frequency” value (Trial 1, 15 mg + SSRI, n = 30)?
**A.** The value was 3.

**Q.** What about the “Gastrointestinal side effects, Frequency (%)” value (Trial 1, 15 mg + SSRI, n = 30) of the same compound?
**A.** Its value is “(10.0%)”.

**Q.** And the “Infectious side effects, Frequency” value (Trial 1, 15 mg + SSRI, n = 30)?
**A.** The value was 2.

**Q.** And the “Infectious side effects, Frequency (%)” value (Trial 1, 15 mg + SSRI, n = 30)?
**A.** Its value is “(6.7%)”.

**Q.** And the “Miscellaneous side effects, Frequency” value (Trial 1, 15 mg + SSRI, n = 30)?
**A.** The value was 2.

**Q.** And the “Miscellaneous side effects, Frequency (%)” value (Trial 1, 15 mg + SSRI, n = 30)?
**A.** The value was “(6.7%)”.

**Q.** And the “Psychological side effects, Frequency” value (Trial 1, 15 mg + SSRI, n = 30)?
**A.** Its value is 2.

**Q.** What about the “Psychological side effects, Frequency (%)” value (Trial 1, 15 mg + SSRI, n = 30) of the same compound?
**A.** Its value is “(6.7%)”.

**Q.** And the “Sexual side effects, Frequency” value (Trial 1, 15 mg + SSRI, n = 30)?
**A.** Its value is 0.

**Q.** What about the “Sexual side effects, Frequency (%)” value (Trial 1, 15 mg + SSRI, n = 30) of the same compound?
**A.** Its value is “(0%)”.

**Q.** And the “Sleep side effects, Frequency” value (Trial 1, 15 mg + SSRI, n = 30)?
**A.** Its value is 2.

**Q.** What about the “Sleep side effects, Frequency (%)” value (Trial 1, 15 mg + SSRI, n = 30) of the same compound?
**A.** The value was “(6.7%)”.

**Q.** And the “Somatic side effects, Frequency” value (Trial 1, 15 mg + SSRI, n = 30)?
**A.** The value was 3.

**Q.** And the “Somatic side effects, Frequency (%)” value (Trial 1, 15 mg + SSRI, n = 30)?
**A.** Its value is “(10.0%)”.

**Q.** What about the “Cardiovascular side effects, NNH” value (Trial 1, 15 mg + SSRI) of the same compound?
**A.** Its value is “<placebo”.

**Q.** And the “Gastrointestinal side effects, NNH” value (Trial 1, 15 mg + SSRI)?
**A.** Its value is “<placebo”.

**Q.** What about the “Infectious side effects, NNH” value (Trial 1, 15 mg + SSRI) of the same compound?
**A.** The value was “<placebo”.

**Q.** What about the “Miscellaneous side effects, NNH” value (Trial 1, 15 mg + SSRI) of the same compound?
**A.** Its value is “<placebo”.

**Q.** And the “Psychological side effects, NNH” value (Trial 1, 15 mg + SSRI)?
**A.** Its value is “<placebo”.

**Q.** And the “Sexual side effects, NNH” value (Trial 1, 15 mg + SSRI)?
**A.** Its value is “=placebo”.

**Q.** And the “Sleep side effects, NNH” value (Trial 1, 15 mg + SSRI)?
**A.** The value was “<placebo”.

**Q.** What about the “Somatic side effects, NNH” value (Trial 1, 15 mg + SSRI) of the same compound?
**A.** Its value is “<placebo”.
